Test results as given in patent US8993547B2, “3-desoxy-2-methylene-19-nor-vitamin D analogs and their uses” (Wisconsin Alumni Research Foundation, priority 2011, dated 2015).
“Also recorded” adds a separate entry of the source.

Key:
[1] = tested on: Human promyelocytic leukemia (HL60) cells; experiment: HL-60 cell differentiation (nitro blue tetrazolium reduction); type: cell-based; settings: for EC50: HL60 cells, 4 days
Experimental: The study drugs were dissolved in ethanol and the concentrations determined using UV spectrophotometry. Serial dilutions were prepared so that a range of drug concentrations could be tested without changing the final concentration of ethanol (≦0.2%) present in the cell cultures.
Human promyelocytic leukemia (HL60) cells were grown in RPMI-1640 medium containing 10% fetal bovine serum. The cells were incubated at 37° C. in the presence of 5% CO2.
HL60 cells were plated at 1.2×10^5 cells/ml. Eighteen hours after plating, cells in duplicate were treated with drug. Four days later, the cells were harvested and a nitro blue tetrazolium reduction assay was performed (Collins et al., 1979; J. Exp. Med. 149:969-974). The percentage of differentiated cells was determined by counting a total of 200 cells and recording the number that contained intracellular black-blue formazan deposits. Verification of differentiation to monocytic cells was determined by measuring phagocytic activity (data not shown).

[2] = tested on: bone calcium mobilization; experiment: Bone calcium mobilization (serum calcium) in vitamin D-deficient rats; type: in vivo, Sprague-Dawley rats; settings: for bone calcium mobilization activity / serum calcium: vitamin D-deficient rats on low calcium diet (0.02%)
Experimental: (§1) Male, weanling Sprague-Dawley rats were placed on Diet 11 (Suda et al, J. Nutr. 100:1049, 1970) (0.47% Ca)+vitamins AEK for one week followed by Diet 11 (0.02% Ca)+vitamins AEK for 3 weeks. The rats were then switched to the same diet containing 0.47% Ca for one week followed by two weeks on the same diet containing 0.02% Ca. Dose administration began during the last week on 0.02% calcium diet. Four consecutive ip doses were given approximately 24 hours apart. Twenty-four hours after the last dose, blood was collected from the severed neck and the concentration of serum calcium determined by atomic absorption spectrometry as a measure of bone calcium mobilization. The first 10 cm of the intestine was also collected for intestinal calcium transport analysis using the everted gut sac method.

[3] = tested on: 24-hydroxylase (24Ohase) gene promoter in ROS 17/2.8 (bone) cells; experiment: In vitro transcription assay, 24-hydroxylase gene promoter luciferase reporter; type: cell-based; settings: for transcriptional activity in bone cells compared to 1α,25-dihydroxyvitamin D3: 24-hydroxylase gene; for EC50: ROS 17/2.8 cells, 16 hours after dosing, read-out: EC50, transcriptional activity in bone cells (24-hydroxylase gene)
Experimental: Transcription activity was measured in ROS 17/2.8 (bone) cells that were stably transfected with a 24-hydroxylase (24Ohase) gene promoter upstream of a luciferase reporter gene (Arbour et al., 1998). Cells were given a range of doses. Sixteen hours after dosing the cells were harvested and luciferase activities were measured using a luminometer. RLU=relative luciferase units.

[4] = tested on: intestinal calcium transport; experiment: Intestinal calcium transport, everted gut sac method; type: in vivo, Sprague-Dawley rats; settings: vitamin D-deficient rats
Experimental: as §1

[5] = biological target: T1, full-length recombinant rat vitamin D receptor (Rattus norvegicus, UniProt P13053); experiment: Vitamin D receptor competitive binding with [3H]-1,25(OH)2D3; settings: full-length recombinant rat VDR
T1 construct: Full-length recombinant rat receptor was expressed in E. coli; histidine tag (C); made in house; host or cells: E. coli BL21 (DE3) Codon Plus RIL
T1 sequence (P13053 1-423): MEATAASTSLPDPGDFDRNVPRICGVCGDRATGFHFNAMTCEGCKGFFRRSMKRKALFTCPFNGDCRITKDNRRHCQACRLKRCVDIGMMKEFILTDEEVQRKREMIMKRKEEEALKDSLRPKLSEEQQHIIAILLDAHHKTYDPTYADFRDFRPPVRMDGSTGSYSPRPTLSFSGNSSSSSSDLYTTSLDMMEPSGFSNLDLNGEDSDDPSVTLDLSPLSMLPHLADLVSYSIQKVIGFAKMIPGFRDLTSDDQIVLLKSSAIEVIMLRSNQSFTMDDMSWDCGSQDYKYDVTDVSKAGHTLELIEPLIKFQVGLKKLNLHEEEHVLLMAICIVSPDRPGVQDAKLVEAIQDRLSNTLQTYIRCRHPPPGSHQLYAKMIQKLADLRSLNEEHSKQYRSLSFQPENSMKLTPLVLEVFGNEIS
Experimental: Full-length recombinant rat receptor was expressed in E. coli BL21 (DE3) Codon Plus RIL cells and purified to homogeneity using two different column chromatography systems. The first system was a nickel affinity resin that utilizes the C-terminal histidine tag on this protein. The protein that was eluted from this resin was further purified using ion exchange chromatography (S-Sepharose Fast Flow). Aliquots of the purified protein were quick frozen in liquid nitrogen and stored at −80° C. until use. For use in binding assays, the protein was diluted in TEDK50 (50 mM Tris, 1.5 mM EDTA, pH7.4, 5 mM DTT, 150 mM KCl) with 0.1% Chaps detergent. The receptor protein and ligand concentration was optimized such that no more than 20% of the added radiolabeled ligand was bound to the receptor.
Radiolabeled and unlabeled ligands were added to 100 mcl of the diluted protein at a final ethanol concentration of ≦10%, mixed and incubated overnight on ice to reach binding equilibrium. The following day, 100 mcl of hydroxylapatite slurry (50%) was added to each tube and mixed at 10-minute intervals for 30 minutes. The hydroxylapaptite was collected by centrifugation and then washed three times with Tris-EDTA buffer (50 mM Tris, 1.5 mM EDTA, pH 7.4) containing 0.5% Titron X-100. After the final wash, the pellets were transferred to scintillation vials containing 4 ml of Biosafe II scintillation cocktail, mixed and placed in a scintillation counter. Total binding was determined from the tubes containing only radiolabeled ligand.

Row | Structure (SMILES) | EC50 [1] [nM] | bone calcium mobilization activity / serum calcium [2] | transcriptional activity in bone cells compared to 1α,25-dihydroxyvitamin D3 [3] | EC50 [3] [nM] | intestinal calcium transport activity compared to 1,25(OH)2D3 [4] | binding affinity to vitamin D receptor compared to 1,25-(OH)2D3 [5] | EC50 ([1]; Homo sapiens, HL-60, 96 h) [nM] | potency in mobilization of bone calcium relative to native hormone at the same dose ([2]; 780 pmol/day for 4 consecutive days, rats on low calcium diet (0.02%)) | potency in releasing bone calcium stores relative to native hormone ([2]; vitamin D-deficient rats, times more potent than 1,25(OH)2D3) | Ki ([5]; read-out: Ki, competition with [3H]-1,25(OH)2D3 for binding to vitamin D receptor) [nM] | potency on HL-60 cell differentiation compared to 1,25(OH)2D3 [1] | mobilization of bone calcium compared to native hormone at the same dose ([2]; 87 pmol/day for 4 consecutive days)
1 | C=C1/C(=C\C=C2/CCC[C@]3(C)[C@@H]([C@H](C)CCCC(C)(C)O)CC[C@@H]23)C[C@@H](O)C[C@@H]1O [1α,25-dihydroxyvitamin D3, reference compound] | 2 | increased serum calcium levels at the dosages tested |  |  |  |  |  |  |  |  |  | 
2 | C=C1CC/C(=C/C=C2\CCC[C@]3(C)[C@@H]([C@@H](C)CCCC(C)(C)O)CC[C@@H]23)C[C@H]1O [3-desoxy-2MD, (20S)-3-desoxy-2-methylene-1α,25-dihydroxy-19-nor-vitamin D3] |  |  | about the same transcriptional activity | 0.3 | about one half log less potent; also recorded: at least one half log less potent than 1,25(OH)2D3 | about the same affinity | 0.7 | about 10 times | at least 10 times |  |  | 
3 | C=C1CC/C(=C/C=C2\CCC[C@]3(C)[C@@H]([C@H](C)CCCC(C)(C)O)CC[C@@H]23)C[C@H]1O [3D-MJ, (20R)-3-desoxy-2-methylene-1α,25-dihydroxy-19-nor-vitamin D3] |  | about the same potency as the native hormone | about the same transcriptional activity | 0.3 | about the same potency as 1,25(OH)2D3; also recorded: about as potent | about the same affinity | 1 |  |  | 0.7 | about the same potency as 1,25(OH)2D3 | only slightly less mobilization of bone calcium than the native hormone
